Measurements published in paper PMC8521015, “Salicylic Acid, a Plant Hormone, Suppresses Phytophagous Insect Immune Response by Interrupting HMG-Like DSP1” (Frontiers in Physiology, 2021).

Target: T1, Se-DSP1 (Spodoptera exigua, UniProt A0A5P9L9K9)
T1 construct: full-length ORF, 505 residues; pET vector, bacterial expression, 6xHis and V5 tags, Ni-NTA then Sephadex G-100
T1 sequence (A0A5P9L9K9 1-505): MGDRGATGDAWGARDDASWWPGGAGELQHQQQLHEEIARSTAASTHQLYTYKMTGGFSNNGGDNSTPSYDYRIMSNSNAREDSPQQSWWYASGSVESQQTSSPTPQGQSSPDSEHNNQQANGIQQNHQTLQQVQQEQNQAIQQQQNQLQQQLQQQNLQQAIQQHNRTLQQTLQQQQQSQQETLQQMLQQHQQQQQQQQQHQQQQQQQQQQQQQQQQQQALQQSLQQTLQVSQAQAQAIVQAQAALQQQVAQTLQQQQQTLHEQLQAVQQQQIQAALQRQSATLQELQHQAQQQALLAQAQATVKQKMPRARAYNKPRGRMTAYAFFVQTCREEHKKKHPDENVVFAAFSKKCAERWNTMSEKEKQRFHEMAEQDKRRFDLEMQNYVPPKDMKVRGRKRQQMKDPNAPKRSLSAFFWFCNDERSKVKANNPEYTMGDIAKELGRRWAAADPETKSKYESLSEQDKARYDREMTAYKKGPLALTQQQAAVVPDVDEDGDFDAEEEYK
Experiment: thermal shift assay (Protein Thermal Shift dye, StepOne real-time PCR)
Conditions: 0-20 μM SA; 500 ng protein; 25-99 °C at 2.96 °C/min; ligand binding equation fit of melting temperatures

Kd: 1.28 ± 0.05 µM
SMILES: O=C(O)c1ccccc1O [SA, 2-hydroxybenzoic acid]
